The values below come from PubChem BioAssay (NCI).

Among the test systems are 786-0 renal; DU-145 prostate; EKVX NSCLC; HCT-116 colon; IGROV1 ovarian; MOLT-4 leukemia; NCI-H23 lung; NCI-H460 lung; SK-MEL-2 melanoma; SNB-19 CNS; U251 CNS; A498 renal.
What all share (test): NCI anticancer screen, dose series, 48 h

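How tested: cells in 96-well plates exposed to compound for 48 hours at five concentrations. The concentration for full growth arrest is given as TGI.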 Where a SMILES comes first, the peptide text is derived from it. The star is where a group is joined. Cbz = O=C(OCc1ccccc1)*; Boc = CC(C)(C)OC(=O)*; tBu = CC(C)(C)*

As to `CC1(C)CC(=O)C(/C=N/c2nc(-c3ccccc3)cs2)=C(O)C1`, the TGI in the assay on 786-0 renal was more than 100 µM; in the assay on DU-145 prostate, more than 100 µM; in the assay on EKVX NSCLC, more than 100 µM; in the assay on HCT-116 colon, more than 100 µM; in the assay with IGROV1 ovarian, 87.9 µM; in the assay with MOLT-4 leukemia, more than 100 µM. In addition, the TGI in the assay with NCI-H23 lung, in the assay with NCI-H460 lung, with SK-MEL-2 melanoma, in the assay on SNB-19 CNS and with U251 CNS was more than 100 µM throughout.

On to `c1csc(-c2cc(-c3cccs3)c(-c3ccsc3)s2)c1`, for which the TGI in the assay on 786-0 renal, in the assay with A498 renal, in the assay with DU-145 prostate, in the assay with EKVX NSCLC, with HCT-116 colon and with IGROV1 ovarian was more than 100 µM in each case. For the same compound, the TGI with MOLT-4 leukemia, in the assay on NCI-H23 lung, in the assay with NCI-H460 lung, with SK-MEL-2 melanoma, in the assay with SNB-19 CNS and in the assay with U251 CNS was more than 100 µM in each case.

`CSC1=N/C(=C\c2ccccc2)C(=O)N1CN1CCCCC1`: the TGI in the assay with 786-0 renal, in the assay with A498 renal, in the assay with DU-145 prostate, with EKVX NSCLC, in the assay on HCT-116 colon and in the assay on IGROV1 ovarian was more than 100 µM each time. The TGI with MOLT-4 leukemia, with NCI-H23 lung, in the assay on SK-MEL-2 melanoma, with SNB-19 CNS and in the assay on U251 CNS was more than 100 µM throughout.

Turning to `CCCCCCCCCCN(CCCCCCCCCC)C(=O)COc1c2cc(C(C)(C)C)cc1Cc1cc(C(C)(C)C)cc(c1OCC(=O)N(CCCCCCCCCC)CCCCCCCCCC)Cc1cc(C(C)(C)C)cc(c1OCC(=O)N(CCCCCCCCCC)CCCCCCCCCC)Cc1cc(C(C)(C)C)cc(c1OCC(=O)N(CCCCCCCCCC)CCCCCCCCCC)C2`, the TGI was determined as 23.3 µM in the assay with 786-0 renal; 29.1 µM with A498 renal; 31.8 µM with DU-145 prostate; 25.2 µM in the assay with EKVX NSCLC; 5.6 µM in the assay on HCT-116 colon; 24.8 µM with IGROV1 ovarian. Besides, the TGI in the assay on MOLT-4 leukemia is 6.34 µM; with NCI-H23 lung it was 9.16 µM; in the assay on NCI-H460 lung, 26.2 µM; in the assay with SK-MEL-2 melanoma it was 20.4 µM; in the assay on SNB-19 CNS, 22.1 µM; in the assay on U251 CNS it was 23.2 µM.

With `CC(OC(C)(C)C)C(NC(=O)C(CCCCNC(=O)OC(C)(C)C)NC(=O)C(Cc1c[nH]c2ccccc12)NC(=O)C(Cc1ccccc1)NC(=O)OCc1ccccc1)C(=O)NC(Cc1ccccc1)C(=O)O` (stereo unspecified) (Cbz-FWK(Boc)T(tBu)F-OH; configuration not given here), the TGI in the assay with 786-0 renal was more than 100 µM; with A498 renal, more than 100 µM; in the assay with DU-145 prostate it was more than 100 µM; in the assay with EKVX NSCLC, more than 100 µM; in the assay with HCT-116 colon, more than 100 µM; in the assay on IGROV1 ovarian it was 98.9 µM. Also, the TGI with MOLT-4 leukemia is more than 100 µM; with NCI-H23 lung, more than 100 µM; in the assay on NCI-H460 lung, more than 100 µM; in the assay on SK-MEL-2 melanoma it was 92.8 µM; in the assay on SNB-19 CNS it was 52.8 µM; in the assay on U251 CNS, more than 100 µM.

On to `C/C=C(/C)C(=O)O[C@H]1C[C@@H]2[C@@H](O)c3occ(C)c3C[C@]2(C)[C@@H](C)C1`, for which the TGI with 786-0 renal was found to be 29.7 µM; in the assay with DU-145 prostate, 28.2 µM; with EKVX NSCLC, 30.5 µM; in the assay with HCT-116 colon, 28.5 µM; with IGROV1 ovarian it was 30.8 µM; with MOLT-4 leukemia it was 37.1 µM. Further, the TGI was found to be 33.1 µM in the assay on NCI-H23 lung, 46.8 µM in the assay on NCI-H460 lung, 31.5 µM in the assay with SNB-19 CNS and 28.3 µM in the assay on U251 CNS.

In the case of `CCOC(=O)C1(C(=O)OCC)C[C@H](C)[C@](C)(O)C1`, the TGI in the assay with 786-0 renal, in the assay with A498 renal, in the assay with DU-145 prostate, in the assay on EKVX NSCLC, in the assay on HCT-116 colon and in the assay with IGROV1 ovarian was more than 100 µM throughout. Further, the TGI in the assay on MOLT-4 leukemia, with NCI-H23 lung, with NCI-H460 lung, with SK-MEL-2 melanoma, with SNB-19 CNS and with U251 CNS was more than 100 µM in each case.

Regarding `COC/C=C\[C@]1(O)CCCC[C@@H]1CC(OC)OC`, the TGI with 786-0 renal is more than 100 µM; with A498 renal, more than 100 µM; in the assay on DU-145 prostate, more than 100 µM; in the assay with EKVX NSCLC, more than 100 µM; in the assay with IGROV1 ovarian it was more than 100 µM; in the assay with MOLT-4 leukemia, 91.2 µM. The TGI in the assay on NCI-H23 lung, with NCI-H460 lung, in the assay on SK-MEL-2 melanoma, in the assay on SNB-19 CNS and in the assay with U251 CNS was more than 100 µM in each case.
